Patent publication US20120053144A1, “Cobalamin Taxane Bioconjugates For Treating Eye Disease” (Osiris Therapeutics, Inc., priority 2009, published 2012)

Test system: choroidal neovascularization
Assay: Choroidal neovascularization model (argon laser scarring, fluorescein leakage scoring)
Type: in vivo, rats
Conditions: rat eye, laser-induced, treated on day 0
Method: Groups of rats were neovascularized by argon laser scarring on an eye. At the same time (day 0), the eye was immediately treated with the cobalamin-paclitaxel bioconjugate (CT-101) prepared in accordance with Example 1. Two concentrations, one higher and one lower, were tested. The treatment regimen also included a vehicle and KENACORT® RETARD (4% triamcinolone acetonide), as a positive control. The treated eyes were evaluated for inhibition of neovascularization on days 7, 14 and 21 by infusing the eye with fluorescein and scoring the leakage from each spot. The leakage of fluorescein on the photographies of the angiograms from each spot were evaluated by two examiners using an HRA (Heidelberg's Retinal Angiograph) in a masked fashion and graded as follows:
Score 1: slightly stained;
Score 2: moderate stained;
Score 3: strongly stained.

B12-5′-OCONH(CH2)5CO-Phe-Lys-PABC-7-Taxol [CT-101]
inhibition of neovascularization (fluorescein leakage score) (Day 14, both concentrations (higher and lower)): measurable effect | inhibition of neovascularization (fluorescein leakage score) (effect over 7 days relative to vehicle and positive control): marked angiogenic effect relative to the vehicle over 7 days, and was comparable in effect to the positive control
